# From patent US20250074890A1, “CYANOPYRIDINE AND CYANOPYRIMIDINE BCL6 DEGRADERS” (DANA-FARBER CANCER INSTITUTE, INC., priority 2021, published 2025)
# Structures can show the parent of a compound that is named as a salt.
# Biological target: T1, BCL6 (Homo sapiens, UniProt P41182)
# T1 construct: Endogenous BCL6 was tagged with the 11-amino acid SmBiT through CRISPR/Cas9 gene editing; endogenous in cells; host or cells: Su-DHL-4 (CRISPR/Cas9 knock-in, single cell clone)
# Test: HiBiT cellular degradation assay in Su-DHL-4 cells
# Assay type: cell-based
# Conditions: concentration to reach 50% degradation of endogenous SmBiT-tagged BCL6, 24 hours of compound treatment
# Experimental: DC50 (concentration to reach 50% degradation) values were determined from a cellular degradation assay (HiBiT, Promega™) in Su-DHL-4 cells (Table 1). Endogenous BCL6 was tagged with the 11-amino acid SmBiT through CRISPR/Cas9 gene editing and single cell clone selection. After 24 hours of compound treatment, cells were lysed and incubated with LgBiT protein to reconstitute intact nanoluciferase. Substrate was then added and relative luciferase units were measured. Degradation levels for each treatment were taken as a percentage compared to the control, 100% DMSO (Prism).
row,DC50 [nM],Structure (SMILES)
1,> 400,"C[C@H]1CN(c2nc(Nc3ccc4c(c3)n(CCC(C)(C)O)c(=O)n4C)c(F)cc2C#N)C[C@@H](O)C1(F)F (single isomer, unassigned) [Compound 83]"
2,> 400,"C[C@H]1CN(c2nc(Nc3ccc4c(c3)n(C[C@@H]3COC(=O)N3)c(=O)n4C)c(F)cc2C#N)C[C@@H](N)C1(F)F [Compound 60, 2-[(3R,5S)-3-Amino-4,4-difluoro-5-methyl-1-piperidyl]-5-fluoro-6-[[1-methyl-2-oxo-3-[[(R)-2-oxooxazolidin-4-yl]methyl]benzimidazol-5-yl]amino]pyridine-3-carbonitrile]"
3,48,"C[C@@H]1CN(c2nc(Nc3ccc4c(c3)n(CCC3(O)CC3)c(=O)n4C)c(Cl)cc2C#N)C[C@H](N)C1(F)F [Compound 59, 2-((3S,5R)-3-Amino-4,4-difluoro-5-methylpiperidin-1-yl)-5-chloro-6-((3-(2-(1-hydroxycyclopropyl)ethyl)-1-methyl-2-oxo-2,3-dihydro-1H-benzo[d]imidazol-5-yl)amino)nicotinonitrile]"
4,> 400,"C[C@@H]1CN(c2nc(Nc3ccc4c(c3)n(CCC(C)(C)O)c(=O)n4C)c(F)cc2C#N)C[C@H](N)C1(F)F [Compound 80, 2-((3S,5R)-3-Amino-4,4-difluoro-5-methylpiperidin-1-yl)-5-fluoro-6-((3-(3-hydroxy-3-methylbutyl)-1-methyl-2-oxo-2,3-dihydro-1H-benzo[d]imidazol-5-yl)amino)nicotinonitrile hydrochloride]"
5,> 400,"C[C@@H]1CN(c2nc(Nc3ccc4c(c3)n(C[C@H]3CNC(=O)O3)c(=O)n4C)c(F)cc2C#N)C[C@H](N)C1(F)F [Compound 84, 2-((3S,5R)-3-amino-4,4-difluoro-5-methylpiperidin-1-yl)-5-fluoro-6-((1-methyl-2-oxo-3-(((R)-2-oxooxazolidin-5-yl)methyl)-2,3-dihydro-1H-benzo[d]imidazol-5-yl)amino)nicotinonitrile]"
6,31,"C[C@H]1CN(c2nc(Nc3ccc4c(c3)n(CCC(C)(C)O)c(=O)n4C)c(F)cc2C#N)C[C@@H](N)C1(F)F [Compound 81, 2-((3R,5S)-3-Amino-4,4-difluoro-5-methylpiperidin-1-yl)-5-fluoro-6-((3-(3-hydroxy-3-methylbutyl)-1-methyl-2-oxo-2,3-dihydro-1H-benzo[d]imidazol-5-yl)amino)nicotinonitrile hydrochloride]"
7,33,"C[C@@H]1CN(c2nc(Nc3ccc4c(c3)n(CC[C@@H](C)O)c(=O)n4C)c(F)cc2C#N)C[C@H](C)[C@@H]1F [Compound 55, 5-Fluoro-2-((3S,4S,5R)-4-fluoro-3,5-dimethylpiperidin-1-yl)-6-((3-((R)-3-hydroxybutyl)-1-methyl-2-oxo-2,3-dihydro-1H-benzo[d]imidazol-5-yl)amino)nicotinonitrile]"
8,22,"C[C@@H]1CN(c2nc(Nc3ccc4c(c3)n(CCC(C)(C)O)c(=O)n4C)c(Cl)cc2C#N)C[C@H](O)C1(F)F [Compound 74, 5-chloro-2-((3S,5R)-4,4-difluoro-3-hydroxy-5-methylpiperidin-1-yl)-6-((3-(3-hydroxy-3-methylbutyl)-1-methyl-2-oxo-2,3-dihydro-1H-benzo[d]imidazol-5-yl)amino)nicotinonitrile]"
9,118,"C[C@@H](O)Cn1c(=O)n(CCC(C)(C)O)c2cc(Nc3nc(N4C[C@@H](N)C(F)(F)[C@@H](C)C4)c(C#N)cc3F)ccc21 [Compound 91, 2-((3R,5S)-3-Amino-4,4-difluoro-5-methylpiperidin-1-yl)-5-fluoro-6-((3-(3-hydroxy-3-methylbutyl)-1-((R)-2-hydroxypropyl)-2-oxo-2,3-dihydro-1H-benzo[d]imidazol-5-yl)amino)nicotinonitrile]"

# Further lines, the compound ahead of its results:
row,Structure (SMILES),DC50 [nM]
1,"C[C@H]1CN(c2nc(Nc3ccc4c(c3)n(CCC(C)(C)O)c(=O)n4C)c(Cl)cc2C#N)C[C@@H](O)[C@H]1F [Compound 51, 5-chloro-2-((3R,4S,5S)-4-fluoro-3-hydroxy-5-methylpiperidin-1-yl)-6-((3-(3-hydroxy-3-methylbutyl)-1-methyl-2-oxo-2,3-dihydro-1H-benzo[d]imidazol-5-yl)amino)nicotinonitrile]",> 400
2,"CNC(=O)COc1cc2cc(Nc3nc(N4C[C@@H](C)C(F)(F)[C@@H](C)C4)c(C#N)cc3Cl)ccc2n(CCN(C)C)c1=O [Compound 11, 2-((6-((3-Chloro-5-cyano-6-((3R,5S)-4,4-difluoro-3,5-dimethylpiperidin-1-yl)pyridin-2-yl)amino)-1-(2-(dimethylamino)ethyl)-2-oxo-1,2-dihydroquinolin-3-yl)oxy)-N-methylacetamide]",2
3,"C[C@@H]1CN(c2nc(Nc3ccc4c(c3)cc(OC[C@H]3CNCCO3)c(=O)n4C)c(Cl)cc2C#N)C[C@H](C)[C@@H]1F [Compound 71, 5-Chloro-2-((3S,4S,5R)-4-fluoro-3,5-dimethylpiperidin-1-yl)-6-((1-methyl-3-((R)-morpholin-2-ylmethoxy)-2-oxo-1,2-dihydroquinolin-6-yl)amino)nicotinonitrile]",> 400
4,"C[C@H]1CN(c2nc(Nc3ccc4c(c3)n(CCC(C)(C)O)c(=O)n4C)c(F)cc2C#N)C[C@@H](O)[C@H]1F [Compound 53, 5-Fluoro-2-((3R,4S,5S)-4-fluoro-3-hydroxy-5-methylpiperidin-1-yl)-6-((3-(3-hydroxy-3-methylbutyl)-1-methyl-2-oxo-2,3-dihydro-1H-benzo[d]imidazol-5-yl)amino)nicotinonitrile]",> 400
5,"CNC(=O)COc1cc2cc(Nc3nc(N4C[C@@H](C)[C@@H](F)[C@@H](C)C4)c(C#N)cc3Cl)ccc2n(C)c1=O [Compound 45, 2-((6-((3-Chloro-5-cyano-6-((3R,4S,5S)-4-fluoro-3,5-dimethylpiperidin-1-yl)pyridin-2-yl)amino)-1-methyl-2-oxo-1,2-dihydroquinolin-3-yl)oxy)-N-methylacetamide]",3
6,"CNC(=O)COc1cc2cc(Nc3nc(N4C[C@H](C)C[C@H](C(=O)O)C4)c(C#N)cc3Cl)ccc2n(C)c1=O [Compound 79, (3S,5R)-1-(5-chloro-3-cyano-6-((1-methyl-3-(2-(methylamino)-2-oxoethoxy)-2-oxo-1,2-dihydroquinolin-6-yl)amino)pyridin-2-yl)-5-methylpiperidine-3-carboxylic acid]",12
7,"CNC(=O)COc1cc2cc(Nc3nc(N4C[C@@H](C)[C@@H](F)[C@@H](C)C4)c(C#N)cc3Cl)ccc2n(CCN)c1=O [Compound 66, 2-((1-(2-Aminoethyl)-6-((3-chloro-5-cyano-6-((3S,4S,5R)-4-fluoro-3,5-dimethylpiperidin-1-yl)pyridin-2-yl)amino)-2-oxo-1,2-dihydroquinolin-3-yl)oxy)-N-methylacetamide]",6
8,"CNC(=O)COc1cc2cc(Nc3nc(N4C[C@@H](C)[C@@H](O)[C@@H](C)C4)c(C#N)cc3Cl)ccc2n(CCN(C)C)c1=O [Compound 73, 2-((6-((3-chloro-5-cyano-6-((3S,4S,5R)-4-hydroxy-3,5-dimethylpiperidin-1-yl)pyridin-2-yl)amino)-1-(2-(dimethylamino)ethyl)-2-oxo-1,2-dihydroquinolin-3-yl)oxy)-N-methylacetamide]",9
9,"CNC(=O)COc1cc2cc(Nc3nc(N4C[C@@H](C)[C@H](O)[C@@H](C)C4)c(C#N)cc3Cl)ccc2n(C)c1=O [Compound 47, 2-((6-((3-Chloro-5-cyano-6-((3R,4r,5S)-4-hydroxy-3,5-dimethylpiperidin-1-yl)pyridin-2-yl)amino)-1-methyl-2-oxo-1,2-dihydroquinolin-3-yl)oxy)-N-methylacetamide]",11
10,"CNC(=O)COc1cc2cc(Nc3nc(N4C[C@@H](C)C(F)(F)[C@@H](C)C4)c(C#N)cc3Cl)ccc2n(CC2COC2)c1=O [Compound 7, 2-((6-((3-chloro-5-cyano-6-((3R,5S)-4,4-difluoro-3,5-dimethylpiperidin-1-yl)pyridin-2-yl)amino)-1-(oxetan-3-ylmethyl)-2-oxo-1,2-dihydroquinolin-3-yl)oxy)-N-methylacetamide]",5
11,"CNC(=O)COc1cc2cc(Nc3nc(N4C[C@@H](C)C(F)(F)[C@@H](C)C4)c(C#N)cc3Cl)ccc2n(CC2CCO2)c1=O (stereo partly drawn) [Compound 6, 2-((6-((3-Chloro-5-cyano-6-((3R,5S)-4,4-difluoro-3,5-dimethylpiperidin-1-yl)pyridin-2-yl)amino)-1-(oxetan-2-ylmethyl)-2-oxo-1,2-dihydroquinolin-3-yl)oxy)-N-methylacetamide]",13
12,"C[C@@H]1C[C@H](N)CN(c2nc(Nc3ccc4c(c3)n(CCC(C)(C)O)c(=O)n4C)c(Cl)cc2C#N)C1 [Compound 36, 2-((3S,5R)-3-amino-5-methylpiperidin-1-yl)-5-chloro-6-((3-(3-hydroxy-3-methylbutyl)-1-methyl-2-oxo-2,3-dihydro-1H-benzo[d]imidazol-5-yl)amino)nicotinonitrile]",> 400
13,"CNC(=O)COc1cc2cc(Nc3nc(N4C[C@@H](C)C(F)(F)[C@@H](C)C4)c(C#N)cc3Cl)ccc2n(C)c1=O [Compound 2, 2-((6-((3-Chloro-5-cyano-6-((3S,5R)-4,4-difluoro-3,5-dimethylpiperidin-1-yl)pyridin-2-yl)amino)-1-methyl-2-oxo-1,2-dihydroquinolin-3-yl)oxy)-N-methylacetamide]",6
14,"CNC(=O)COc1cc2cc(Nc3nc(N4C[C@@H](C)[C@H](F)[C@@H](C)C4)c(C#N)cc3Cl)ccc2n(C)c1=O [Compound 64, 2-((6-((3-chloro-5-cyano-6-((3R,4r,5S)-4-fluoro-3,5-dimethylpiperidin-1-yl)pyridin-2-yl)amino)-1-methyl-2-oxo-1,2-dihydroquinolin-3-yl)oxy)-N-methylacetamide]",7
